# Where “and” joins values, the source holds several entries; their conditions need not be identical. Equal entries are not always repeated. Where two headings read alike, the source gives them in different places.
# Tests used:
# [1] = system: Uromyces appendiculatus; assay: in vivo preventive test on Uromyces test (beans); details: 10 days after inoculation
# Protocol: The plants are then placed in a greenhouse at approximately 21° C. and a relative atmospheric humidity of approximately 90%. The test is evaluated 10 days after the inoculation.
# [2] = system: Leptosphaeria nodorum; assay: in vivo preventive Leptosphaeria nodorum test (wheat); details: 8 days after inoculation
# Protocol: After the spray coating has been dried, the plants are sprayed with a spore suspension of Leptosphaeria nodorum. […] The plants are placed in the greenhouse at a temperature of approximately 25° C. and a relative atmospheric humidity of approximately 80%.
# (§1) The test is evaluated 8 days after the inoculation.
# [3] = system: Alternaria solani; assay: in vivo preventive test on Alternaria test (tomatoes); details: 3 days after inoculation
# Protocol: After the spray coating has dried on, the plants are inoculated with an aqueous spore suspension of Alternaria solani.
# The test is evaluated 3 days after the inoculation.
# [4] = system: Septoria tritici; assay: in vivo preventive Septoria tritici test (wheat); details: 21 days after inoculation
# Protocol: After the spray coating has been dried, the plants are sprayed with a spore suspension of Septoria tritici. […] The plants are placed in the greenhouse at a temperature of approximately 15° C. and a relative atmospheric humidity of approximately 80%.
# The test is evaluated 21 days after the inoculation.
# [5] = system: Blumeria graminis f.sp. hordei; assay: in vivo preventive Blumeria test (barley); details: 7 days after inoculation
# [6] = system: Sphaerotheca fuliginea; assay: in vivo preventive test on Sphaerotheca test (cucumbers); details: 7 days after inoculation
# Protocol: After the spray coating has dried on, the plants are inoculated with an aqueous spore suspension of Sphaerotheca fuliginea. The plants are then placed in a greenhouse at approximately 23° C. and a relative atmospheric humidity of approximately 70%.
# (§2) The test is evaluated 7 days after the inoculation.
# [7] = system: Venturia inaequalis; assay: in vivo preventive test on Venturia test (apples); details: 10 days after inoculation
# Protocol: The plants are then placed in a greenhouse at approximately 21° C. and a relative atmospheric humidity of approximately 90%.
# The test is evaluated 10 days after the inoculation.
# [8] = system: Fusarium graminearum; assay type: in vivo; details: barley, 5 days after inoculation
# [9] = system: Phakopsora pachyrhizi; assay: in vivo preventive test on Phakopsora test (soybeans); details: 7 days after inoculation
# Protocol: After the spray coating has dried on, the plants are inoculated with an aqueous spore suspension of the causal agent of soybean rust (Phakopsora pachyrhizi) and stay for 24 h without light in an incubation cabinet at approximately 24° C. and a relative atmospheric humidity of 95%. The plants remain in the incubation cabinet at approximately 24° C. and a relative atmospheric humidity of approximately 80% and a day/night interval of 12 h.
# as §2
# [10] = system: Puccinia triticina; assay: in vivo preventive Puccinia triticina test (wheat); details: 8 days after inoculation
# Protocol: After the spray coating has been dried, the plants are sprayed with a spore suspension of Puccinia triticina.
# as §1
# [11] = system: Fusarium nivale (var. majus); assay: in vivo preventive Fusarium nivale (var. majus) test (wheat); details: 5 days after inoculation
# Protocol: After the spray coating has been dried, the plants are slightly injured by using a sandblast and afterwards they are sprayed with a conidia suspension of Fusarium nivale (var. majus). The plants are placed in the greenhouse under a translucent incubation cabinet at a temperature of approximately 10° C. and a relative atmospheric humidity of approximately 100%.
# The test is evaluated 5 days after the inoculation.
# [12] = system: Pyrenophora teres; assay: in vivo preventive Pyrenophora teres test (barley); details: 8 days after inoculation
# Protocol: After the spray coating has been dried, the plants are sprayed with a spore suspension of Pyrenophora teres.
# as §1
# [13] = system: Botrytis cinerea; assay: in vivo preventive test on Botrytis test (beans); details: size of lesions 2 days after inoculation
# Protocol: Solvent: 24.5 parts by weight of acetone • 24.5 parts by weight of dimethylacetamide Emulsifier: 1 part by weight of alkylaryl polyglycol ether
# After the spray coating has dried on, 2 small pieces of agar covered with growth of Botrytis cinerea are placed on each leaf. The inoculated plants are placed in a darkened chamber at 20° C. and a relative atmospheric humidity of 100%.
# 2 days after the inoculation, the size of the lesions on the leaves is evaluated.
Compound,Efficacy in % found ([2]; 25 ppm a.i.),Efficacy in % found ([2]; 50 ppm a.i.),Efficacy in % found ([2]; 100 ppm a.i.),Efficacy in % found ([3]; 0.5 ppm a.i.),Efficacy in % found ([5]; 25 ppm a.i.),Efficacy in % found ([9]; 0.25 ppm a.i.),Efficacy in % found ([9]; 0.5 ppm a.i.),Efficacy in % found ([4]; 25 ppm a.i.),Efficacy in % found ([4]; 50 ppm a.i.),Efficacy in % found ([10]; 25 ppm a.i.),Efficacy in % found ([10]; 50 ppm a.i.),Efficacy in % found ([8]; 50 ppm a.i.),Efficacy in % found ([3]; 1 ppm a.i.),other results
"CCC1CC(C)(C)c2cccc(NC(=O)c3cccnc3C(F)F)c21 (centres unmarked) [(I-3), 2-(difluoromethyl)-N-(3-ethyl-1,1-dimethyl-2,3-dihydro-1H-inden-4-yl)nicotinamide]",0%,14%,43%,23%,0%,,,,,,,,,Efficacy in % found ([1]; 0.25 ppm a.i.): 90%; Efficacy in % found ([4]; 100 ppm a.i.): 83%; Efficacy in % found ([6]; 0.5 ppm a.i.): 0%; Efficacy in % found ([7]; 1 ppm a.i.): 11%; Efficacy in % found ([8]; 25 ppm a.i.): 0%
"CC(C)(C)C(O)(CCc1ccc(Cl)cc1)Cn1cncn1 (centres unmarked) [1.47, tebuconazole]",,,,8% and 0%,,0%,0%,,,,,,,Efficacy in % found ([1]; 0.25 ppm a.i.): 0%; Efficacy in % found ([1]; 0.5 ppm a.i.): 0%; Efficacy in % found ([1]; 1 ppm a.i.): 0%; Efficacy in % found ([3]; 0.25 ppm a.i.): 0%
"CC1(C)CCC(Cc2ccc(Cl)cc2)C1(O)Cn1cncn1 (centres unmarked) [1.30, metconazole]",0%,,,,93% and 80%,,,17%,33%,20%,10%,14%,,Efficacy in % found ([5]; 50 ppm a.i.): 93%; Efficacy in % found ([10]; 12.5 ppm a.i.): 0%
"CCCC1CC(C)(C)c2cccc(NC(=O)c3cccnc3C(F)F)c21 (centres unmarked) [(I-5), 2-(difluoromethyl)-N-(1,1-dimethyl-3-propyl-2,3-dihydro-1H-inden-4-yl)nicotinamide]",,38%,38%,,,43% and 60%,78% and 89%,,,,,29%,,Efficacy in % found ([1]; 0.5 ppm a.i.): 95%; Efficacy in % found ([10]; 12.5 ppm a.i.): 30%; Efficacy in % found ([8]; 25 ppm a.i.): 0%
difenoconazole [1.7],29%,29% and 43%,13%,,,,,,0%,20%,50%,0%,,Efficacy in % found ([11]; 12.5 ppm a.i.): 0%; Efficacy in % found ([5]; 50 ppm a.i.): 60% and 71% and 40%; Efficacy in % found ([10]; 12.5 ppm a.i.): 0%; Efficacy in % found ([8]; 100 ppm a.i.): 0%; Efficacy in % found ([12]; 12.5 ppm a.i.): 22%; Efficacy in % found ([12]; 50 ppm a.i.): 13%
"CCC[C@@H]1CC(C)(C)c2cccc(NC(=O)c3cccnc3C(F)F)c21 [(I-6), 2-(difluoromethyl)-N-[(3R)-1,1-dimethyl-3-propyl-2,3-dihydro-1H-inden-4-yl]nicotinamide]",,14%,,,40%,60% and 75%,,,75%,,,,27%,Efficacy in % found ([3]; 0.25 ppm a.i.): 16%
propiconazole [1.40],,,25%,,43% and 80%,,,0%,0%,25%,0% and 10%,,,Efficacy in % found ([4]; 100 ppm a.i.): 38%; Efficacy in % found ([12]; 25 ppm a.i.): 22%; Efficacy in % found ([12]; 50 ppm a.i.): 13% and 25%; Efficacy in % found ([12]; 100 ppm a.i.): 25%
"OC(Cn1cncn1)(c1ccc(F)cc1)c1ccccc1F (centres unmarked) [1.22, flutriafol]",,,,0%,,0%,,,,,,,0%,Efficacy in % found ([9]; 1 ppm a.i.): 0%; Efficacy in % found ([3]; 0.25 ppm a.i.): 0%; Efficacy in % found ([6]; 1 ppm a.i.): 24%; Efficacy in % found ([7]; 0.25 ppm a.i.): 0%; Efficacy in % found ([7]; 0.5 ppm a.i.): 0%; Efficacy in % found ([7]; 1 ppm a.i.): 8%; Efficacy in % found ([13]; 0.25 ppm a.i.): 0%; Efficacy in % found ([13]; 0.5 ppm a.i.): 15%; Efficacy in % found ([13]; 1 ppm a.i.): 30%
"OC(Cc1ccccc1Cl)(Cn1nc[nH]c1=S)C1(Cl)CC1 (centres unmarked) [1.41, prothioconazole]",,,,15% and 8%,,0%,0%,,,,,,15%,Efficacy in % found ([1]; 0.25 ppm a.i.): 0%; Efficacy in % found ([1]; 1 ppm a.i.): 0%; Efficacy in % found ([7]; 1 ppm a.i.): 0%
"CC[C@@H]1CC(C)(C)c2cccc(NC(=O)c3cccnc3C(F)F)c21 [(I-4), 2-(difluoromethyl)-N-[(3R)-3-ethyl-1,1-dimethyl-2,3-dihydro-1H-inden-4-yl]nicotinamide]",,0%,,,,33% and 65%,75%,75%,75%,,,,40%,Efficacy in % found ([11]; 12.5 ppm a.i.): 13%; Efficacy in % found ([11]; 25 ppm a.i.): 13%; Efficacy in % found ([5]; 50 ppm a.i.): 0%; Efficacy in % found ([7]; 0.5 ppm a.i.): 16%
cyproconazole [1.5],,0%,,,,,,,50%,70%,80%,,,Efficacy in % found ([2]; 12.5 ppm a.i.): 0%; Efficacy in % found ([4]; 100 ppm a.i.): 17%; Efficacy in % found ([12]; 25 ppm a.i.): 25% and 22%; Efficacy in % found ([12]; 50 ppm a.i.): 25%; Efficacy in % found ([12]; 100 ppm a.i.): 0%
"Fc1ccc([C@]2(Cn3cncn3)O[C@H]2c2ccccc2Cl)cc1 (racemic) [1.12, epoxiconazole]",43%,57%,,,30%,,,0%,63% and 33%,40%,,0%,,Efficacy in % found ([11]; 12.5 ppm a.i.): 13%; Efficacy in % found ([5]; 12.5 ppm a.i.): 14%

# Source: US20170349550A1, “ACTIVE COMPOUND COMBINATIONS” (BAYER CROPSCIENCE AKTIENGESELLSCHAFT, priority 2014, published 2017)
